Measured values as given in patent US5032398A, “Selective modification of the catalytic subunit of pertussis toxin” (priority 1986, dated 1991).
Values joined by “and” are separate entries in the source; they are usually repeats but may differ in a detail not shown here. Identical values can stand only once. Like-named read-outs stand apart in the source and are kept apart here.

Key:
[1] = target: T1, pertussis toxin (Bordetella pertussis, UniProt P04977); experiment: NADase activity in the presence of sulfhydryl reducing agents (Example Five); assay type: biochemical
Description: In the description herein, activation constants for the substances may be expressed by a numerical value (A0.5) by using an NADase assay.
(§1) The pertussis toxin in the Examples comprised 50 μg of the toxin in a 500 μl solution of 10 mM sodium phosphate-50 mM sodium chloride-water solution having a pH of 7. The enzymatic activity was detected as the hydrolysis of nicotinamide labelled NAD and ion-exchange column chromatography to resolve the product from the substrate. Unless otherwise noted, the assay was initiated by adding 0.5 to 2.5 μg of the toxin to a reaction mixture for a final volume of 100 μl. The NADase reaction was terminated by adding 0.85 ml of ice-cold water. The entire 0.95 ml was then pipetted into a QAE-Sephadex column (chloride form) and the labelled nicotinamide eluted with 3 ml of water directly into a scintillation vial and counted. […] One unit of NADase activity is defined as 1 pmol NAD hydrolyzed per hour.
Pertussis toxin NADase activity was assayed in the presence of various sulfhydryl reducing agents at various concentrations. The assay buffer contained 1% CHAPS and 1 mM ATP.

[2] = target: T1, pertussis toxin; experiment: as above; assay type: biochemical; details: 10 mM DTT without ATP
[3] = target: T1, pertussis toxin; experiment: Inactivation of NADase activity by iodoacetate after different activator combinations (Example Seven); assay type: biochemical; details: additions to first incubation only (DTT 1 mM, ATP 1 mM, CHAPS 1%), second incubation none
Description: (§2) Pertussis toxin was incubated first at 37° C. for fifteen minutes in […] buffer A (100 mM Tris-HCl, pH 8.0 with 1 mM NaEDTA). EDTA was added to chelate divalent cations, which may promote oxidation of free --SH groups. During this incubation, DTT and ATP were present in concentrations of 1 mM each, and CHAPS was present in a concentration of 1 weight percent. Labelled iodoacetate was then added ([…], 12.5 mM), and the tube incubated on ice for twenty hours. The sample was then mixed with sodium dodecylsulfate and β-mercaptoethanol, heated at 95° C. for one minute, and electrophoresed. After electrophoresis, the gel was fixed, treated with Fluorohance (Research Products International), dried and used to expose x-ray film.
(§3) Pertussis toxin was incubated at 37° C. for fifteen minutes as described in Example Six, and then a second incubation was begun by adding 10 μl buffer A with or without 12.5 mM iodoacetate, mixing the contents of the tube and lowering the temperature to 30° C. After fifteen minutes, the tubes were shifted to an ice bath for ten minutes. A third incubation was then begun by adding 10 μl buffer A containing 200 mM DTT to those tubes containing iodoacetate to scavenge the iodoacetate. To those tubes not containing iodoacetate during the second incubation, a mixture of 200 mM DTT and 12.5 mM iodoacetate in buffer A, previously incubated for an hour on ice, was added. The third incubation was continued for one hour on ice.
(§4) The contents of each tube were then assayed for NADase activity by adding 40 μl of a reaction mix consisting of buffer A containing carbon-14 labelled NAD (final concentration in the 100 μl final volume was 25 μM), and 50 mM sodium chloride. Different reaction mixtures with various additions were used, so that in all tubes the final concentration of ATP was 1 mM and CHAPS was 1 weight percent. The assay was conducted at 37° C. for sixty minutes, and the released labelled nicotinimide was isolated and counted. The iced controls were formed by incubating pertussis toxin (1 μg) on ice in 10 mM sodium phosphate (pH 7) and 50 mM sodium chloride during the first three incubations. […] The first three incubations were done under a nitrogen atmosphere using degassed conditions, and the second and third incubations were done under subdued light.

[4] = system: S1 -S5 subunits of the toxin; experiment: Labelled iodoacetate incorporation into toxin subunits, electrophoresis and x-ray film (Examples Two and Six); set-up: species or system Bordetella pertussis; details: CHAPS added, compared with DTT and ATP or DTT alone
Description: Pertussis toxin (2.5 μg) was incubated for thirty minutes at 37° C. in 50 μl of 50 mM Tris-HCl (pH 8.0) with or without combinations of the activators ATP, CHAPS and DTT. During this incubation, ATP was 1 mM, CHAPS was 1 weight percent, and DTT was 0.5 mM, when present. Following this incubation, 75 nmol (1.34 microCi of iodo[^14 C]acetate and 25 μl of water were then added, and the tubes incubated for an additional thirty minutes under nitrogen gas at 30° C. in the dark. This labelling reaction was terminated by adding 1 ml of ice-cold water containing 7.5 mM non-radioactive iodoacetate, 2.5 μg bovine serum albumin, and 150 μg sodium deoxycholate. After ten minutes on ice, 100 μl 72% triochloroacetic acid was added, and the precipitate recovered by centrifugation. Sodium dodecylsulfate and beta-mercaptoethanol were added, the sample heated to 95° C. for one minute, and then electrophoresed using 15% polyacrylamide gels. The fixed gels were then treated, dried and used to expose x-ray film at -70° C.
as §2

[5] = target: T1, pertussis toxin; experiment: Inactivation of NADase activity by sulfhydryl reagents, 6 minutes or 18 hours at 0-4° (Example Eight); assay type: biochemical
Description: as §3, §4
The procedure followed in Example Seven was repeated for this study, except that N-ethylmaleimide, chloroacetamide or chloroacetate were substituted for iodoacetate. After the 30° C. incubation, the tubes were either incubated for six minutes or eighteen hours at 0°-4° C. before the 10 μl of 200 mM DTT (with or without quenched reagent) was added. Those tubes receiving the DTT after six minutes were incubated for nineteen hours at 0°-4° C. prior to the NADase assay. Those receiving the DTT after eighteen hours were incubated with DTT for one hour, as in Example Seven. The tubes were then assayed for NADase activity at the same time.

[6] = target: T1, pertussis toxin; experiment: Effect of detergents on the NADase activity of pertussis toxin (Example Four); assay type: biochemical; details: 1 mM ATP, 10 mM DTT; for Fractional Activity with CHAPS: detergent 1 weight percent plus CHAPS 1%; for Fractional Activity with CHAPS / Fractional Activity without CHAPS: relative to 1% CHAPS alone; for Fractional Activity without CHAPS: detergent 1 weight percent
Description: as §1
The effect of detergents on the NADase activity of pertussis toxin was measured in the presence of various detergents at a concentration of 1 weight percent in either the absence or presence of the detergent CHAPS (1 percent by weight). ATP was present in all assays in a concentration of 1 mM, and DTT concentration was 10 mM. Fractional activity is shown in Table III and is defined as activity divided by activity in the presence of 1% CHAPS. The value given is the average for two separate trials, and in each trial duplicates were measured for each condition.

[7] = target: T1, pertussis toxin; experiment: NADase activity of pertussis toxin after activation and treatment with alkylating reagent (Example One); assay type: biochemical
Text: The ADP-ribosylating activity of the pertussis toxin can be detected as a nicotinamide-adenine dinucleotide-glycohydrolase (NADase) activity, which can be conveniently assayed through the use of [nicotinamide-^14 C] or [nicotinamide-^3 H] NAD. NAD consists of ADP-ribose linked to nicotinimide, and thus the extent of the release of ADP-ribose from NAD is an indication of the ability of the toxin to cause ill effects. In conducting this assay of the hydrolysis of labelled NAD, ion-exchange column chromatography was employed to resolve the product from the substrate according to the method described by Moss et al., J. Biol. Chem. 258, 11879 (1983) which is incorporated herein by reference. However, several modifications to this method were employed. First, a QAE-Sephadex resin was employed, as was a [nicotinamide-^3 H] NAD. Specifically, a 2 ml QAE-Sephadex column was first washed with 10 ml 1NHCl, followed by 10 ml H2 O, 20 ml 0.5M Tris-HCl pH 7.0, and 40 ml H2 O. [^3 H] NAD was applied, and the column washed with 20 ml water to elute impurities. Purified [^3 H] NAD was eluted with 0.25M NaCl, and stored in small aliquots at -70° C. The purified [^3 H] NAD contributed 50 mM NaCl (final concentration) to the NADase assays.
Before the end of the reaction, 2 ml QAE-Sephadex columns were treated with 10 ml 0.1M imidazole-HCl pH 7.0 with 1.0M NaCl, followed by 40 ml water. The NADase reaction (in 100 μl) was terminated by adding 0.85 ml of ice-cold water, and the entire 0.95 ml was pipetted into a treated QAE column. The labelled nicotinamide was then eluted with 3 ml of water directly into a scintillation vial and counted. The absorbed labelled NAD was then eluted into radioactive waste with 10 ml 0.1M imidazole-HCl pH 7.0 with 1.0M NaCl, and the column stored partially immersed in a water bath until the next assay.
In order to determine if any active toxin remained after the inactivation, a large excess of sulfhydryl reductant was added to each tube to scavenge unreacted sulfhydryl reagent. The NADase activity of the preparation was then measured. The three incubations were performed under a nitrogen atmosphere using degassed solutions to prevent oxidation of sulfhydryl groups which would prevent the sulfhydryl reagent from modifying the sulfhydryl group.
as §1
One-half microgram of pertussis toxin was incubated for thirty minutes at […] in 100 mM Tris-HCl (pH 8.0), with or without activators, in a volume of 50 μl. When present, ATP and pyrophosphate were present in a concentration of 2 mM, CHAPS at 2 weight percent, and DTT in a concentration of either 2 mM (trial 1) or 1 mM (trial 2). 10 μl of water with or without iodoacetate or N-ethylmaleimide was then added and a second incubation conducted at 30° C. for either thirty minutes (trial 1) or fifteen minutes (trial 2). After this incubation, 10 μl of 200 mM DTT was added to each tube, and the tubes were incubated for thirty (trial 1) or sixty minutes (trial 2) on ice to scavenge the iodoacetate or N-ethylmaleimide.

[8] = first incubation: ATP, DTT, CHAPS, 6 minutes at 0-4°
[9] = first incubation: ATP, DTT, CHAPS, 18 hours at 0-4°

T1 sequence (P04977 35-269 limits assumed): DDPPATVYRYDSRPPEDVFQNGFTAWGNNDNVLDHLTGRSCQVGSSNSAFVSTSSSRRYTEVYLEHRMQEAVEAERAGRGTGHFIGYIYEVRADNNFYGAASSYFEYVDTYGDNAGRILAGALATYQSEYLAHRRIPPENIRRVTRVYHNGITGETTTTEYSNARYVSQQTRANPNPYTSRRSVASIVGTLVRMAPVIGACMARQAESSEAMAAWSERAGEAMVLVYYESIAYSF
Chain of S1 -S5 subunits of the toxin (P04977 35-269 limits assumed): as above
Chain of S1 -S5 subunits of the toxin (P04978 28-226 limits assumed, further chain): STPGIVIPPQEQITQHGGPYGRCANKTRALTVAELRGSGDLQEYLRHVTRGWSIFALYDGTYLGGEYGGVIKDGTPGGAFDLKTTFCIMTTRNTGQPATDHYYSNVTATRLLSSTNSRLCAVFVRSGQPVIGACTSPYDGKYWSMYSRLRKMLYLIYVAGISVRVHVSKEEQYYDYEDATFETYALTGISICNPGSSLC
Chain of S1 -S5 subunits of the toxin (P04979 29-227 limits assumed, further chain): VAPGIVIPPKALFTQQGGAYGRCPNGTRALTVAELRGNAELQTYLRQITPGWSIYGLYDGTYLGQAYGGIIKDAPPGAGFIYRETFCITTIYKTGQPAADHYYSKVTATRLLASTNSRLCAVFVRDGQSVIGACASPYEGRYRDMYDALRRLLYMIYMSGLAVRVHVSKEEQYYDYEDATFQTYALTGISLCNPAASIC
Chain of S1 -S5 subunits of the toxin (P0A3R5 43-152 limits assumed, further chain): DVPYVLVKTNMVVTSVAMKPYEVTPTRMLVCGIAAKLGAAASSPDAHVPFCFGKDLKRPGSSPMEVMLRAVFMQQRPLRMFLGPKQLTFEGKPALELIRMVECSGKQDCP
Chain of S1 -S5 subunits of the toxin (P04981 35-133 limits assumed, further chain): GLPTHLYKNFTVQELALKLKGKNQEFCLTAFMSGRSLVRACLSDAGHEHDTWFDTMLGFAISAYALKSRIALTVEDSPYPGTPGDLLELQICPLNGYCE

Compound: O[C@H](CS)[C@H](O)CS (racemic) [DTT, dithiothreitol]
- Effectiveness as sulfhydryl reductant to prepare the toxin for deactivation, in words [1]: effective
- NADase activity ([1]; 10 mM DTT with 1 mM ATP): 147 U per microgram toxin and 195 U per microgram toxin
- EC50 ([1]; read-out: concentration for half of the maximum effect (A0.5)): 200 µM
- EC100 ([1]; read-out: concentration showing full activation): 1000 µM
- NADase activity [2]: 18 U per microgram toxin and 36 U per microgram toxin
- remaining activity at 1000 µM ([3]; read-out: Percent NADase activity relative to iced control): 38%

Compound: C[C@H](CCC(=O)NCCC[N+](C)(C)CCCS(=O)(=O)[O-])[C@H]1CC[C@H]2[C@@H]3[C@H](O)C[C@@H]4C[C@H](O)CC[C@]4(C)[C@H]3C[C@H](O)[C@]12C [CHAPS, 3-[(3-cholamidopropyl)-dimethylammonio]-1-propane sulfonate]
- Peak indicating the alkylation of the S1 subunit [4]: increases
- Peaks indicating alkylation of the S2 and S3 subunits [4]: substantially decreases
- NADase activity ([5]; additions to first incubation only, second incubation none, 18 hours at 0-4°): 186 pmol per μg per hour
- NADase activity in the presence of CHAPS alone ([6]; 1% CHAPS, two trials): 153 units per microgram and 158 units per microgram
- Percent NADase activity relative to iced control [3]: 106

Compound: CCN1C(=O)C=CC1=O [N-ethylmaleimide]
- NADase activity (%) of the activity of toxin treated the same way without alkylating agent ([7]; first incubation: DTT 1 mM, CHAPS 2%, ATP 2 mM, Experiment #2, second incubation 15 min at 30° C, 25 μM NAD): 13%
- NADase activity (%) of the activity of toxin treated the same way without alkylating agent ([7]; first incubation: DTT 1 mM, CHAPS 2%, pyrophosphate 2 mM, Experiment #2, second incubation 15 min at 30° C, 25 μM NAD): 46%
- NADase activity (%) of the activity of toxin treated the same way without alkylating agent ([7]; first incubation: DTT 2 mM, CHAPS 2%, ATP 2 mM, Experiment #1, second incubation 30 min at 30° C, 125 μM NAD): 11%
- NADase activity (%) of the activity of toxin treated the same way without alkylating agent ([7]; first incubation: DTT 2 mM, CHAPS 2%, pyrophosphate 2 mM, Experiment #1, second incubation 30 min at 30° C, 125 μM NAD): 60%
- NADase activity (%) of the activity of toxin treated the same way without alkylating agent ([7]; first incubation: none, Experiment #1, second incubation 30 min at 30° C, 125 μM NAD): 90%
- NADase activity (%) of the activity of toxin treated the same way without alkylating agent ([7]; first incubation: none, Experiment #2, second incubation 15 min at 30° C, 25 μM NAD): 106%
- NADase activity [5, 8]: 16 pmol per μg per hour
- percent of activity with no addition to second incubation [5, 8]: 15%
- NADase activity [5, 9]: 10 pmol per μg per hour
- percent of activity with no addition to second incubation [5, 9]: 10%

Compound: N[C@@H](CS)C(=O)O [cysteine]
- Effectiveness as sulfhydryl reductant to prepare the toxin for deactivation, in words [1]: effective
- activation constant ([1]; in the presence of ATP and CHAPS): the same constant

Compound: N[C@@H](CCC(=O)N[C@@H](CS)C(=O)NCC(=O)O)C(=O)O [glutathione]
- Effectiveness as sulfhydryl reductant to prepare the toxin for deactivation, in words [1]: effective
- EC50 ([1]; in the presence of ATP and CHAPS, read-out: activation constant): 2000 µM

Compound: NP-40
- Fractional Activity with CHAPS [6]: 0.97
- Fractional Activity without CHAPS [6]: 0.54

Compound: Triton X-100
- Fractional Activity with CHAPS [6]: 1.05
- Fractional Activity without CHAPS [6]: 0.58
